SMILES strings stand for the structures.

The target of one data set is T1, NHE1 antiporter (Homo sapiens, UniProt P19634).
T1 construct: endogenous in cells; host or cells: cultured human keratinocytes (CHK)
The experiment in a line: Intracellular pH (BCECF) and recovery from acid load in cultured human keratinocytes. It is filed as cell-based. The procedure: Assessment of Intracellular pH: Keratinocytes were plated on glass coverslips and grown in Cascade 154 medium containing 0.07 mM Ca^2+. The coverslips were incubated in 145 μM BCECF-AM ester at room temperature for 5 minutes, then rinsed for 30 minutes in buffer containing either 28 mM HEPES, 136 mM NaCl, 5 mM KCl, 0.07 mM CaCl2 and 10 mM glucose, pH 7.4 or Ringer solution (136 mM NaCl, 5 mM KCl, 0.03 mM Ca2+, 28 mM TES, 14 mM Na HCO3, NaOH to adjust the pH to 7.4, and 10 mM glucose (pH 7.4, 330 mOsm)). BCECF-AM-ester is membrane permeable; once inside cells it is de esterified by endogenous […], trapping flourescently-active, acidic BCECF inside the cells. The BCECF-loaded cells were placed in a superfusion chamber mounted on a inverted microscope (Nikon). The keratinocytes were superfused with one of the two solutions, and baseline intracellular pH was monitored constantly using a ratiometric method (Paradiio et al (1987) Am J. Physiol. 253:C30-6). […] The resultant fluorescence (at 530 nm) from each stimulating wavelength was measured with a CCD camera (Hamamatsu) digitally ratioed, and stored using a software program (Fluor, Universal Imaging Co., West Chester, Pa.). Whereas fluorescence emission at 440 nm excitation remains constant, indicative of dye concentration, emission from 490 nm varies proportionally with changes of intracellular pH. […]

Data set [1] concerns murine skin. The experiment in a line: Stratum corneum pH after tape-stripping with buffers and NHE1 inhibitors. The format is in vivo, mouse.
Experimental: The acidification experiments were performed with 10 mM HEPES-buffer, adjusted to either pH 5.5 or pH 7.4 as follows: One flank of anesthetized mice was immersed on a mesh netting, as described previously (Lee, S. H., et al., J. Clin. Invest. 89:530-8 (1992)). […] After 3 hours immersion at 37° C., the mice were removed, and the remaining buffer was gently blotted off. After 15 minutes, barrier function was determined by measurement of transepidermal water loss(TEWL) with an electrolytic water analyzer (MEECO®, Warrington, Pa.). Surface pH was measured with a flat, glass surface electrode from Mettler-Toledo (Giessen, Germany), attached to a pH meter (Skin pH Meter PH 900, Courage& Khazaka, Cologne, Germany). Individually tested sites were covered with Hilltop Chambers (HtC, nominal volume 200 mL), which were reapplied following each indvidual measurement.
(§2) The stratum corneum was removed by several strippings with adhesive tape (Tesatape, Beiersdorf, Germany) inducing an increase in TEWL levels above baseline (from 2-5 to approximately 10-15 g/m^2/h). Two sites were prepared on each animal, and TEWL and surface pH were measured at 0, 2, 5 and 24 hrs following the stripping and the applications of inhibitors.
For the next data set, the system named is mouse skin. As to the kind of experiment: Electron microscopy of lamellar bodies and extracellular lipid processing. The format is in vivo. From the text:
(§1) Ultrastructural methods: Freshly obtained biopsies from mouse skin were fixed directly in modified Karnovsky's fixative, postfixed with reduced osmium tetroxide (OSO4) and then imbedded in an Epon-epoxy mixture. For visualization of lipid-enriched, lamellar bilayer structures, some samples were post fixed in ruthenium tetroxide (RuO4). Sections were cut on a Reichert Ultracut E microtome, counterstained with uranyl acetate and lead citrate, and viewed in a Zeiss 10 CR electron microscope, operated at 60 kV.

Data set [2] has as its system hairless mice. The experiment in a line: Barrier recovery (TEWL) after tape-stripping. As to conditions: for barrier recovery after tape-stripping: NHE1 inhibitors, general statement.
Experimental: Permeability Barrier Studies: Normal hairless mice were treated topically twice a daily for three days with BPB (4 mg/mL) or MJ33 (4 mg/mL) both in propylene glycol:ethanol (7:3 v/v) vehicle, or the vehicle alone on an area of 5-6 cm on the backs and flanks as described previously (Mao-Qiang, M., et al., J. Lipid Res. 36:1926-35 (1995)). […] The acidification experiments were performed with 10 mM HEPES-buffer, adjusted to either pH 5.5 or pH 7.4 as follows: One flank of anesthetized mice was immersed on a mesh netting, as described previously (Lee, S. H., et al., J. Clin. Invest. 89:530-8 (1992)). The mice were anesthetized with chloral hydrate (Morton Grove Pharmaceuticals, Morton Grove, Ill., USA). After 3 hours immersion at 37° C., the mice were removed, and the remaining buffer was gently blotted off. After 15 minutes, barrier function was determined by measurement of transepidermal water loss(TEWL) with an electrolytic water analyzer (MEECO®, Warrington, Pa.). […] Individually tested sites were covered with Hilltop Chambers (HtC, nominal volume 200 mL), which were reapplied following each indvidual measurement.
as §2
Hairless mice were tape stripped to TEWL of 7-9 g/m^2/h. […] Control areas were covered with Hilltop Chambers containing 10 mM HEPES buffer adjusted to pH 7.4 or pH 5.5 as appropriate. TEWL was measured at 0, 2, 5, and 24 hours post tape-strip. The results are reported as percent barrier recovery from the initial induced defect.
Data set [3] deals with hairless mice. The experiment in a line: Skin surface pH after topical treatment or buffer exposure. The format is in vivo, hairless mice (Skh1/Hr).
Experimental: (§3) The mice were anesthetized with chloral hydrate (Morton Grove Pharmaceuticals, Morton Grove, Ill., USA). After 3 hours immersion at 37° C., the mice were removed, and the remaining buffer was gently blotted off. After 15 minutes, barrier function was determined by measurement of transepidermal water loss(TEWL) with an electrolytic water analyzer (MEECO®, Warrington, Pa.). Surface pH was measured with a flat, glass surface electrode from Mettler-Toledo (Giessen, Germany), attached to a pH meter (Skin pH Meter PH 900, Courage& Khazaka, Cologne, Germany). Individually tested sites were covered with Hilltop Chambers (HtC, nominal volume 200 mL), which were reapplied following each indvidual measurement.
In data set [4] the test system is hairless mice. As to the kind of experiment: Stratum corneum integrity: TEWL after sequential tape strippings. The format is in vivo, hairless mice (Skh1/Hr).
Experimental: After 15 minutes, barrier function was determined by measurement of transepidermal water loss(TEWL) with an electrolytic water analyzer (MEECO®, Warrington, Pa.). […] Individually tested sites were covered with Hilltop Chambers (HtC, nominal volume 200 mL), which were reapplied following each indvidual measurement.
as §2
The test system of data set [5] is hairless mice. The experiment in a line: Stratum corneum cohesion: protein removed per D-Squame stripping. The format is in vivo, hairless mice (Skh1/Hr).
Experimental: Before stripping the stratum corneum, the skin surface was cleaned with a single ethanol wipe. D-Squame tapes then were placed sequentially to the test areas for about 3 sec each, removed with forceps, and stored in glass scintillation vials at 5° C.
The amount of protein removed per D-Squame was measured, by a modification of the method of Dreher, F., et al., Acta Derm. […] The protein content per stripping was determined with the Bio-Rad protein assay kit. […] Each tape was incubated with 1 M NaOH for 1 hour at 37° C. in an incubator shaker at 80 rpm, and neutralized thereafter with 1 mL of 1 M HCl in the scintillation vials. Subsequently, 0.2 mL of this solution was incubated in 0.6 ml distilled water plus 0.2 mL of the Bio-Rad protein dye for 5 minutes in borosililate tubes. […] An empty D-Squame tape, as well as distilled water incubated with Bio-Rad dye, served as negative controls. The amount of calculated protein was then normalized to skin surface area (μg/cm^2).
Data set [6] concerns hairless mice. The experiment in a line: Permeability barrier function by transepidermal water loss (TEWL). The format is in vivo, hairless mice (Skh1/Hr).
Experimental: as §3
In data set [7] the test system is murine skin. The experiment in a line: Desmosome density and desmoglein-1 staining in lower stratum corneum. The format is in vivo, mouse. As to conditions: for density of desmosomes in the lower stratum corneum and at the stratum corneum-stratum granulosum interface: inhibitor-treated vs vehicle sites.
Excerpt: as §1
Immunofluorescence Staining: Hairless mouse skin was excised with a 6 mm punch biopsy, and the subcutaneous fat was removed. Tissue sections were incubated for 1 hour in blocking buffer (1% bovine serum albumin, 0.1% cold water fish gelatin in phosphate buffered saline (PBS)), and were then incubated for 1 hour further at room temperature with 1:500 dilution of polyclonal rabbit anti-mouse desmoglein 1 antibody (gift of Dr. John Stanley, University of Pennsylvania) diluted in blocking buffer. The tissue was then washed with blocking buffer and incubated one hour at room temperature with fluoroscein, isothiocyanate-conjugated, goat anti-rabbit IgG antibody (DAKO, Carpinteria, Calif., USA), diluted in blocking buffer. Either preincubation of DSG 1 antibody with DSG 1-recombinant protein (gift of Dr. Masayuki Amagai, Keio University, Tokyo, Japan), or omission of the DSG 1 primary antibody eliminated specific staining.

Data set [8] relates to murine skin. Conditions: 4 mg/mL topical, shown previously; cited from earlier work.
[9] abbreviates: five hours post tape-strip, in pH 7.4 buffer, buffer alone 38%.
Where [10] appears, read: two hours post tape-strip, in pH 7.4 buffer, buffer alone 21%.
Setting [11] is: fatty acid co-applied with BPB, three days.
The mark [12] stands for this setting: fifth strip, fatty acid co-applied with BPB.

T1 sequence (P19634 whole entry): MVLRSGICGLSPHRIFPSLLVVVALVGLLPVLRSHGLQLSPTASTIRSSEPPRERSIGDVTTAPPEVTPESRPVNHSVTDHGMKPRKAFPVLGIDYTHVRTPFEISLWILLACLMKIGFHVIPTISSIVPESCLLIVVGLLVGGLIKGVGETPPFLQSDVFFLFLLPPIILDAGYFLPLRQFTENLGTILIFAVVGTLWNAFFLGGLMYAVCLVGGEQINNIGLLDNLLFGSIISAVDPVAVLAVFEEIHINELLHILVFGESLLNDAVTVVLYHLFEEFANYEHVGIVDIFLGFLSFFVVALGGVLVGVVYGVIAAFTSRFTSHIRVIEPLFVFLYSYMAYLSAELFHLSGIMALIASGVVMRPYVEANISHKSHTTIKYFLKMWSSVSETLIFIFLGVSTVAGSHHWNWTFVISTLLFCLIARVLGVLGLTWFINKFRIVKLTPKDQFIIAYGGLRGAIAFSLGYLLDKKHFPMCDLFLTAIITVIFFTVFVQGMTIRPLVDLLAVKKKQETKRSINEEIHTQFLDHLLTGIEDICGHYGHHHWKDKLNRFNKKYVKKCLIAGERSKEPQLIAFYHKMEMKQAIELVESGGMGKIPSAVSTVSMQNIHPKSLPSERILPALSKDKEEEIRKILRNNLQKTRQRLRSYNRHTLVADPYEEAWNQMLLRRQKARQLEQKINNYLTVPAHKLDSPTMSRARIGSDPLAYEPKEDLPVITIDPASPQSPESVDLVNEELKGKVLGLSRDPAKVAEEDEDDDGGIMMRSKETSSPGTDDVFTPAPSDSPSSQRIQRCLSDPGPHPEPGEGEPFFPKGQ

As for `CS(=O)(=O)c1cc(C(=O)NC(=N)N)ccc1N1CCCCC1` [HOE694, 3-methylsulfonyl-4-piperidino-benzoylguanidinemethanesulfonate], the “intracellular pH” value on NHE1 antiporter (1.5 μM for 16 hours, from pH 7.05) stood at 6.90 pH. The “stratum corneum pH relative to initial post-tape-strip value” in the data set on murine skin [1] (2 hours post-tape-strip, pH 5.5 HEPES buffer) is “more than 0.1 pH units”; in the data set with murine skin [1] (5 hours post-tape-strip, pH 5.5 HEPES buffer), “more than 0.05 pH units”; in the data set on murine skin [1] (five hours post-tape-strip, pH 7.4 buffer) it was “persisted and even increased”. Moreover, the “initial post-tape-strip pH value” in the data set with murine skin [1] (in pH 5.5 buffer, vs pH 5.5 buffer alone) is reported as “increased significantly”. The “stratum corneum pH above that of skin exposed to pH 7.4 buffer alone” value in the data set with murine skin [1] (two hours post-tape-strip, in pH 7.4 buffer) is reported as ~0.05 pH units. Besides, the “stratum corneum pH increase over initial post-tape-strip value” in the data set with murine skin [1] (two hours post-tape-strip, pH 7.4 buffer) is > 0.1 pH units. In addition, the “lamellar body formation and extracellular processing of secreted lipids” value with mouse skin (in pH 5.5 buffer) is recorded as “appeared normal”. In addition, the “extracellular processing of secreted lipids” value with mouse skin (in pH 7.4 buffer) is recorded as “defective”. The “lamellar body formation and secretion” value in the data set on mouse skin (in pH 7.4 buffer) is listed as “undisturbed”. Besides, the “percent barrier recovery (TEWL rate less than initial induced rate)” value is 25% with hairless mice [2] (2 hours post tape-strip, in pH 5.5 buffer, buffer alone 28%); 38% in the data set on hairless mice [2] (5 hours post tape-strip, in pH 5.5 buffer); 75% in the data set on hairless mice [2] (24 hours post tape-strip, in pH 5.5 buffer); “about 45%” in the data set with hairless mice [2] (24 hours post tape-strip, in pH 7.4 buffer, buffer alone 75%); 23% with hairless mice [2] (setting [9]); “about 12%” in the data set on hairless mice [2] (setting [10]). Moreover, the “barrier recovery after tape-stripping” value in the data set with hairless mice [2] is recorded as “delayed barrier recovery”.

With `CCCCCCCCCCCCCCCC(=O)O` [palmitic acid], in the data set on hairless mice [3] (setting [11]), the “pH of the stratum corneum” value is 5.40+/−0.14. For the same molecule, the “TEWL after tape strips” value is given as 55-60 g/m^2/h in the data set with hairless mice [4] (setting [12]) and 30-35 g/m^2/h with hairless mice [4] (three sequential tape-strippings, fatty acid co-applied with MJ33). The protein lost entry is “about 40 μg protein/cm^2” in the data set on hairless mice [5] (setting [12]) and “about 30 μg/cm^2” in the data set with hairless mice [5] (three strippings, fatty acid co-applied with MJ33).

Take `N=C(N)NC(=O)c1nc(Cl)c(N)nc1N` [amiloride, N-Amido-3,5-diamino-6-chloropyrazinecarboxamide]: the “effect after wash out period” value at NHE1 antiporter (FIG. 1 (D), recovery from acid load after wash out) is listed as “non-permanent, non-toxic effect”. In addition, the “barrier recovery after tape-stripping” value in the data set with hairless mice [2] is “delayed barrier recovery”. For the same molecule, the “percent barrier recovery (TEWL rate less than initial induced rate)” value in the data set with hairless mice [2] (setting [9]) is “about 25%”; in the data set with hairless mice [2] (setting [10]), “about 12%”.

For the molecule `CCCCC/C=C\C/C=C\CCCCCCCC(=O)O` [linoleic acid], the “pH of the stratum corneum” value in the data set on hairless mice [3] (setting [11]) is given as 5.77+/−0.10.

For `O=C(CBr)c1ccc(Br)cc1` [BPB, bromphenacyl bromide], the “pH of the stratum corneum” value was 6.28+/−0.1 with hairless mice [3] (BPB alone, comparison with LA co-application); 5.92+/−0.05 in the data set with hairless mice [3] (BPB alone, comparison with PA co-application); 6.17+/−0.08 in the data set on hairless mice [3] (BPB alone, comparison with SA co-application). Also, the “surface pH of BPB treated sites before buffer exposure” value in the data set with hairless mice [3] (BPB three days, before buffer) is ~5.95 pH. In the data set on hairless mice [3] (BPB three days, then neutral buffer (pH 7.4) three hours), the “surface pH” value is ~6.41 pH. The “pH of the skin” value in the data set on hairless mice [3] (after one day, 4 mg/mL topical twice daily) is reported as ~6.0 pH. Also, the “average pH of treated sites” value in the data set with hairless mice [3] (day 3, 4 mg/mL topical twice daily) is ~6.4 pH. For the same molecule, the “TEWL before buffer exposure” value in the data set with hairless mice [6] (BPB three days, before neutral buffer) is listed as “about 10 g/m^2/h”. The barrier function entry in the data set with hairless mice [6] (BPB three days, then acidic buffer three hours) is recorded as “remained unchanged”. Moreover, the TEWL result with hairless mice [6] (BPB three days, then neutral buffer three hours) is on record as “about 18 g/m^2/h”; with hairless mice [6] (day three of treatment), ~11 g/m^2/h; with hairless mice [6] (day two of treatment), ~6 g/m^2/h. Moreover, the “TEWL after tape strippings” value is recorded as “less than 30 g/m^2/h” in the data set on hairless mice [4] (BPB treated sites then acidic buffer, three sequential strippings) and “more than 60 g/m^2/h” in the data set on hairless mice [4] (BPB treated sites then neutral buffer, three sequential strippings). In the data set with hairless mice [4] (fifth strip, BPB alone (Example 5)), the “TEWL after tape strips” value is recorded as 80-100 g/m^2/ h. Moreover, the “TEWL after tape stripping” value is listed as ~90 g/m^2/h in the data set on hairless mice [4] (fifth strip, after three days of treatment (Example 1)) and ~20 g/m^2/h with hairless mice [4] (second strip, after three days of treatment). Moreover, the protein removed in the data set on hairless mice [5] (after five strips (Example 1)) was 85-90 μg/cm^2. The “protein removed per D-Squame stripping” value in the data set on hairless mice [5] (first strip, after three days of treatment) was “about 20 μg/cm^2”. Besides, the protein lost entry with hairless mice [5] (five sequential tape-strippings, BPB alone (Example 5)) is on record as “about 125 μg protein/cm^2”. Also, the “density of desmosomes in the lower stratum corneum and at the stratum corneum-stratum granulosum interface” value in the data set on murine skin [7] is reported as “dramatic reduction”. In addition, in the data set with murine skin [7] (laser confocal microscopy, lower stratum corneum), the “density of DSG1 positive clusters” value was “decline dramatically”. Further, the “toxicity of the doses employed” value with murine skin [8] was “non-toxic”.

As for `CCCCCCCCCCCCCCCCCC(=O)O` [stearic acid], the “pH of the stratum corneum” value with hairless mice [3] (setting [11]) is given as 5.73+/−0.09. The “TEWL after tape strips” value in the data set on hairless mice [4] (setting [12]) is given as “about 25 g/m^2/h”. Moreover, in the data set on hairless mice [5] (setting [12]), the protein lost entry is listed as “about 25 μg protein/cm^2”.

Regarding `CCCCCCCCCCCCCCCCOCC(COCC(F)(F)F)OP(=O)(O)OC` (centres unmarked) [MJ33, 1-Hexadecyl-3-triflouroethylglycero-sn-2-phosphomethanol], in the data set with hairless mice [3] (MJ33 4 mg/mL vs vehicle alone (5.60)), the “stratum corneum surface pH” value is given as 5.87+/−0.06. In the data set on hairless mice [6] (by day three, vs vehicle), the “fold increase in TEWL rates” value was 2-3 fold. In addition, the TEWL rates in the data set with hairless mice [6] (day three, repeated applications, vehicle 2.97) is given as 5.19+/−.81. In addition, the “TEWL after tape strippings” value in the data set with hairless mice [4] (day 3, after three consecutive tape strippings (Example 1)) is ~75 g/m^2/hr. For the same molecule, the “TEWL after tape strips” value in the data set with hairless mice [4] (three sequential tape-strippings, MJ33 alone (Example 5)) is ~75 g/m^2/h. In addition, the protein lost entry in the data set with hairless mice [5] (day 3, after three consecutive tape-strippings (Example 1)) is “over 50 μg protein/cm^2”; in the data set with hairless mice [5] (three sequential strippings, MJ33 alone (Example 5)), “about 50 μg protein/cm^2”. For the same molecule, the “density of desmosomes in the lower stratum corneum and at the stratum corneum-stratum granulosum interface” value in the data set with murine skin [7] is given as “dramatic reduction”. For the same molecule, the “toxicity of the doses employed” value in the data set on murine skin [8] is “non-toxic”.
